Results on 15 molecules are retold here after patent US8106071B2, “Compositions for treating hyperproliferative vascular disorders and cancers” (Biobud Co., Ltd., priority 2007, dated 2012).

Assay [1] has as its system NCI-H460 (lung cancer cell line). Briefly: Cytotoxicity to tumor cells (WST-1), NCI-H460. The format is cell-based. How it is done:
(§1) To verify whether the compounds of this invention could be used as anticancer agents, their cytotoxicity against tumor cells were examined. NCI-H460 (lung cancer cell line, ATCC, USA) and MDA-MB 435S (breast cancer cell line, ATCC, USA) were used. The cancer cell lines were plated in 100 μl of DMEM (Dulbelcco's Modified Eagle Medium) containing 10% FBS (fetal bovine serum) in 96-well plates at 5×10^3 cells/well and cultured for 24 hr at 37° C. under 10% CO2 atmosphere. After change of medium with 100 μl of DMEM containing 5% FBS, cells were treated with the indicated concentration of the compounds in DMSO. The final concentration of DMSO in medium was adjusted to 1%. Following 48-hr treatment, medium was changed with a fresh 5% FBS DMEM and 10 μl/well of premix WST-1 (Takara, Japan) was added for analyzing cell proliferation, followed by 2-hr incubation. Using a ELISA microplate reader, the OD (optical density) values at 450 nm were measured. Compared with no-treatment control, the compounds of this invention were evaluated in terms of their cytotoxicity to cancer cell lines.

In assay [2] the test system is MDA-MB 435S (breast cancer cell line). Kind of assay: Cytotoxicity to tumor cells (WST-1), MDA-MB 435S. The class given is cell-based. Particulars: 48-hr treatment. How it is done: as §1
Assay [3] has as its system Human vascular smooth muscle cells (SMC). Kind of assay: Inhibition of vascular smooth muscle cell proliferation (PDGF-stimulated, WST-1). The class given is cell-based. Particulars: 5 ng/ml PDGF, 48-hr treatment. How it is done: Human vascular smooth muscle cells (SMC, Bio-whittaker, USA) were plated in 100 μl of DMEM (Dulbelcco's Modified Eagle Medium) containing 10% FBS (fetal bovine serum) in 96-well plates at 5×10^3 cells/well and cultured for 24 hr at 37° C. under 10% CO2 atmosphere. Afterwards, cells were starved in 100 μl of DMEM containing 0.2% FBS for 72 hr. Then, cells were incubated in 100 μl of DMEM containing 5% FBS supplemented with 5 ng/ml PDGF (platelet derived growth factor, ProSpec, Israel) and then treated with indicated concentrations of chemicals in DMSO synthesized in Examples. The final concentration of DMSO was adjusted to 1%. After 48-hr treatment, medium was changed with a fresh 5% FBS DMEM and 10 μl/well of premix WST-1 (Takara, Japan) was added for analyzing cell proliferation, followed by 2-hr incubation. Using a ELISA microplate reader, the OD (optical density) values at 450 nm were measured. Compared with no-treatment control, the compounds of this invention were evaluated in terms of their cell proliferation activity.

Another assay has as its system cancer cell lines. Briefly: Cytotoxicity to tumor cells (WST-1), cancer cell lines collectively. The class given is cell-based. Particulars: cancer cell lines (NCI-H460, MDA-MB 435S) not distinguished in the sentence; read-out: IC50 against cancer cell lines. How it is done:
as §1

The test system of assay [4] is neointima thickening of balloon-injured left common carotid artery. Briefly: Inhibition of restenosis using balloon injury of carotid artery. Particulars: Sprague-Dawley rats, intraperitoneal, 2 weeks after balloon injury.
Protocol: To examine restenosis inhibition effects of the present compounds, rat restenosis models were constructed using balloon injury of carotid artery.
Sprague-Dawley male rats with body weights of 350±30 g (12-14 week age, DaehanBiolink, Inc., Korea) were adapted to surrounding environments for one week. For each experiment, 7-10 rats were used. Rats were anesthetized by intraperitoneal administration of a mixture of ketamine (70 mg/kg) and xylazine hydrochloride (33 mg/kg) and their (left common carotid artery, CCA) and branches of internal carotid artery (ICA) and external carotid artery (ECA) were exposed by neck central compartment dissection. The proximal portion of the left common carotid artery and distal portion of the internal carotid artery were temporarily ligated with suture to block bloodstream, the distal portion of the external carotid artery was ligated. The wall of the external carotid artery between both sutures was partially dissected. 2F Fogarty balloon (Edwards Lifesciences) was inserted and the ligation of the left common carotid artery was then unraveled, followed by advancing the balloon along the direction of the ascending aorta. The balloon was inflated and pulled out at the extent that resistance was allowed at the terminal portion of the common carotid artery of the aortic arch, such that the lesion of the left common carotid artery was induced. […]
Setting [5] is: Homo sapiens, NCI-H460, 48-hr treatment.

On to `CC(=O)c1c(Nc2ccc(F)c(F)c2F)[nH]c2c(F)cc(F)cc2c1=O` [BD004], for which the IC50 in assay [1] (48-hr treatment) stood at 850 nM; in assay [2] it was 900 nM.
Regarding `CCC(=O)c1c(Nc2ccc(F)c(F)c2)[nH]c2c(Cl)ccc([N+](=O)[O-])c2c1=O` [BD034], the values for the IC50 in assay [1] (48-hr treatment), in assay [3] and in assay [2] were 3900 nM, 127 nM and 1600 nM, respectively.
In the case of `CC(=O)c1c(Nc2ccc(Cl)cc2Cl)[nH]c2c(Cl)ccc([N+](=O)[O-])c2c1=O` [BD010], the IC50 is 25000 nM in assay [1] (48-hr treatment), 6500 nM in assay [3] and 12000 nM in assay [2].
In the case of `CC(=O)c1c(Nc2ccc(C)cc2)[nH]c2c([N+](=O)[O-])cccc2c1=O` [BD006], the figures for the IC50 in assay [1] (48-hr treatment), in assay [3] and in assay [2] were 1500 nM, 800 nM and 1100 nM, respectively.
Take `CC(=O)c1c(Nc2ccc(Br)cc2Cl)[nH]c2c([N+](=O)[O-])cc(Cl)cc2c1=O` [BD002]: the results for the IC50 in assay [1] (48-hr treatment) and in assay [2] were 400 nM and 300 nM, respectively.
With `CCC(=O)c1c(Nc2ccc(Cl)cc2F)[nH]c2c(Cl)ccc([N+](=O)[O-])c2c1=O` [BD032], the IC50 was 3300 nM in assay [1] (48-hr treatment), 140 nM in assay [3] and 3500 nM in assay [2].
As to `O=C(Nc1ccc(Cl)cc1Cl)c1c(Nc2ccc(Cl)cc2Cl)[nH]c2c(Cl)cc(Cl)cc2c1=O` [BD031, 6,8-dichloro-2-(2,4-dichloro-phenylamino)-4-oxo-1,4-dihydro-quinoline-3-carboxylic acid (2,4-dichloro-phenyl)-amide], the IC50 with cancer cell lines was less than 1000 nM; in assay [1] (setting [5]), 210 nM; in assay [2] (Homo sapiens, MDA-MB-435S), less than 160 nM.
As for `CC(=O)c1c(Nc2cccc(Cl)c2)[nH]c2c(C)cccc2c1=O` [BD008], the IC50 in assay [1] (48-hr treatment) came out at 7200 nM; in assay [3] it was 1640 nM; in assay [2], 6400 nM.
As for `CC(=O)c1c(Nc2ccc(F)c(F)c2F)[nH]c2c(Cl)ccc(C)c2c1=O` [BD003], the IC50 in assay [1] (48-hr treatment) came out at 400 nM; in assay [2], 600 nM.
As to `CC(=O)c1c(Nc2ccc(F)cc2Cl)[nH]c2c(Cl)ccc(C)c2c1=O` [BD005], the IC50 stood at 600 nM in assay [1] (48-hr treatment), 280 nM in assay [3] and 25000 nM in assay [2].
With `O=C(Nc1ccc(Cl)cc1Cl)c1c(Nc2ccccc2)[nH]c2c(Cl)cc(Cl)cc2c1=O` [BD030, 6,8-dichloro-4-oxo-2-phenylamino-1,4-dihydro-quinoline-3-carboxylic acid (2,4-dichloro-phenyl)-amide], the IC50 is less than 1000 nM in the assay on cancer cell lines; 1000 nM in assay [1] (setting [5]); 300 nM in assay [2] (Homo sapiens, MDA-MB-435S). Besides, the “neointima thickening compared with the non-balloon-injured right common carotid artery” value in assay [4] (histology (FIG. 1c vs FIG. 1a)) is “slightly increased neointima thickening”. The “reduced neointima thickening compared with the balloon-injured left common carotid artery” value in assay [4] (dispersed in polyoxyethylated castor oil, histology (FIG. 1c vs FIG. 1b)) is listed as “about 80%”.
In the case of `CCC(=O)c1c(Nc2cccc(Cl)c2Cl)[nH]c2c(Cl)ccc([N+](=O)[O-])c2c1=O` [BD033], the IC50 in assay [1] (48-hr treatment) was found to be 3200 nM; in assay [3], 137 nM; in assay [2], 4000 nM.
For `CC(=O)c1c(Nc2ccc(Br)cc2)[nH]c2cc(Br)cc(Br)c2c1=O` [BD001], in that order: 1500 nM, 210 nM and 1800 nM.
For the molecule `CC(=O)c1c(Nc2ccc(F)cc2)[nH]c2c(F)cc(F)cc2c1=O` [BD007], the IC50 in assay [1] (48-hr treatment) is 1600 nM; in assay [3] it was 290 nM; in assay [2], 1100 nM.
The corresponding values for `CC(=O)c1c(Nc2cccc(F)c2)[nH]c2c(Cl)ccc(F)c2c1=O` [BD009] are 2600 nM, 625 nM and 5200 nM.
